16 molecules from patent publication US4235923A, “Esters of 3-substituted-2-(aminocarbonyl)oxiranecarboxylic acids as lipogenesis inhibitors” (Shell Oil Company, priority 1979, dated 1980) can be followed below.

Usually inhibition stands for the drop in the measured response relative to a control, in per cent.

The test system of this experiment is lipogenesis in swine adipose tissue. Put plainly: inhibition of lipogenesis (incorporation of radioactive glucose carbon into lipid) in slices of swine adipose tissue. Format: cell-based. Conditions: 100 micrograms per milliliter, 37° C., glucose-U^14 C, insulin, 5% DMSO, triplicate; for inhibition at 100 µg/mL: Sus scrofa, 2 h, read-out: Percent Inhibition (of lipogenesis compared to control). From the text:
The manner in which they cause this effect is not known with certainty; it is believed that they interfere with the synthesis of fatty acids in the tissues. Their effectiveness for this purpose has been ascertained by immersing samples of swine adipose tissue in a liquid medium containing radioactive glucose and the test chemical, for a period of time, then isolating the lipid from the treated tissue and determining the incorporation of the radioactive carbon into lipid by means of scintillation counting techniques. These tests were conducted in swine adipose tissue because in swine, the primary site of lipogensis--i.e., fatty acid synthesis--appears to be adipose tissue.
Described in more detail, the tests were conducted according to the following general procedure:
150 milligrams of slices of swine adipose tissue were incubated at 37° C. for 2 hours with shaking in 3 milliliters of Krebs-Ringer bicarbonate solution containing one-half the normal calcium ion concentration, 60 micromoles of glucose, 0.5 micro-Curie of glucose-U^14 C, and 300 microunits of insulin, and 5% dimethyl sulfoxide (DMSO). The test compounds were added as suspensions or solutions in DMSO and were present at a concentration of 100 micrograms per milliliter of the incubation mixture.
The incubation was terminated by addition of 0.25 milliliter of 1 N sulfuric acid. The resulting mixture was extracted with a total of 25 milliliters of chloroform: methanol (2:1 v/v). The extracts were washed according to Folch et al. (J. Biol. Chem., 226, 497-509, (1957)), air dried, and counted in a liquid scintillation counter with 15 milliliters of counting fluid (two parts toluene containing 0.4% w/v New England Nuclear Omnifluor: 1 part Triton X-100). The tests were conducted in triplicate and were accompanied by control tests in which all ingredients,proportions and conditions were the same except that no test compound was included. From the data obtained were calculated the percent inhibition of lipid synthesis by the test compound in each case. The data obtained from the tests are set out in Table 1, as the percent inhibition of lipogenesis compared to the results obtained in the control tests wherein only the test compound was omitted.

Regarding `CCCCCCC1OC1(C(N)=O)C(=O)OCC` (stereo not drawn) [Compound 1, Ethyl 2-(aminocarbonyl)-3-hexyloxiranecarboxylate trans], the inhibition at 100 µg/mL is 88%. On to `CCCCCCC1OC1(C(N)=O)C(=O)OCC` (stereo not drawn) [Compound 2, Ethyl 2-(aminocarbonyl)-3-hexyloxiranecarboxylate cis], for which the “Percent Inhibition (of lipogenesis compared to control)” value (2 hours) is listed as 83%. In the case of `CCOC(=O)C1(C(N)=O)OC1C` (stereo not shown) [Compound 3, Ethyl 2-(aminocarbonyl)-3-methyloxiranecarboxylate], the inhibition at 100 µg/mL came to 18%.

On to `CCOC(=O)C1(C(N)=O)OC1C1CCCCC1` (stereo not shown) [Compound 4, Ethyl 2-(Aminocarbonyl)-3-cyclohexyloxiranecarboxylate], for which the inhibition at 100 µg/mL turned out to be 75%. Consider `CCOC(=O)C1(C(N)=O)OC1c1ccccc1` (stereo not shown) [Compound 5, Ethyl 2-(aminocarbonyl)-3-phenyloxiranecarboxylate], for which the inhibition at 100 µg/mL is 85%.

For the molecule `CCOC(=O)C1(C(=O)NC)OC1c1ccccc1` (stereo not shown) [Compound 6], the inhibition at 100 µg/mL turned out to be 27%. On the same count and under the same terms, with `CC(C)OC(=O)C1(C(N)=O)OC1c1ccccc1` (stereo not shown) [Compound 7, 1-Methylethyl 2-(aminocarbonyl)-3-phenyloxiranecarboxylate] the figure was 48%; with `COC(=O)C1(C(N)=O)OC1c1ccccc1` (stereo not shown) [Compound 8, Methyl 2-(aminocarbonyl)-3-phenyloxiranecarboxylate], 47%; with `CCOC(=O)C1(C(N)=O)OC1c1ccc(Cl)cc1` (stereo not shown) [Compound 9], 65%.

Take `CCOC(=O)C1(C(N)=O)OC1c1ccc(C)cc1` (stereo not shown) [Compound 10]: the inhibition at 100 µg/mL was determined as 37%. The same measure, in the same setting: for `CCOC(=O)C1(C(N)=O)OC1c1ccc(OC)c(OC)c1` (stereo not shown) [Compound 11] the value was 33%.

Consider `CCOC(=O)C1(C(N)=O)OC1c1cccc([N+](=O)[O-])c1` (stereo not shown) [Compound 12], for which the inhibition at 100 µg/mL came out at 76%.

As for `CCOC(=O)C1(C(N)=O)OC1c1ccc(Cl)c(Cl)c1` (stereo not shown) [Compound 13], the inhibition at 100 µg/mL was 87%. The same measure, in the same setting: for `CCOC(=O)C1(C(N)=O)OC1c1ccc(OC)cc1` (stereo not shown) [Compound 14] the value was 55%. Same read-out and setting: for `CCOC(=O)C1(C(N)=O)OC1c1ccc([N+](=O)[O-])cc1` (stereo not shown) [Compound 15] the value was 37%. Still for that read-out and setting: with `CCOC(=O)C1(C(N)=O)OC1C(=O)c1ccccc1` (stereo not shown) [Compound 16, Ethyl 2-(aminocarbonyl)-3-benzoyloxiranecarboxylate] the figure was 74%.
